Measurements: patent publication US20180207094A1, “IMPROVED TOPICAL KETOPROFEN FORMULATIONS” (Elliptical Therapeutics, LLC, priority 2015, published 2018)

Columns and labels:
[1] = reported; cited from earlier work
New Zealand rabbits = conditions: rabbit, in vivo

C[C@@H](C(=O)O)c1cccc(C(=O)c2ccccc2)c1 (single isomer, unassigned) [R-enantiomer]
anti-inflammatory and antipyretic activities [1]: little or no

CCCCCCCCCCCCOS(=O)(=O)[O-].[Na+] [SDS 5%, sodium dodecyl sulfate]
Overall Edema Score (New Zealand rabbits): 0.60 | Overall Erythema Score (New Zealand rabbits): 0.20

C[C@H](C(=O)O)c1cccc(C(=O)c2ccccc2)c1 (single isomer, unassigned) [S-enantiomer]
potency relative to the racemate [1]: approximately twice as potent as the racemate
